Data as given in US20240101570A1 (AMGEN INC., priority 2020, published 2024).

Experiments:
HCT116 MTAP null cells = assay: HCT116 MTAP null cell proliferation / viability (CellTiter-Glo, 6 days); assay type: cell-based; settings: for IC50: HCT116-MTAP null, 144 h, HCT116 MTAP null cells, 6 days, CellTiter-Glo, read-out: HCT-116 MTAP null IC50; for potency of enantiomer relative to the other enantiomer, measured by IC50 in HCT116 MTAP null cell viability assay: comparison of the two SFC-separated enantiomers
Method in brief: (§1)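 CellTiter-Glo luminescence, 6-day exposure, RPMI 1640 + 10% FBS. Dosing: 1:3 series (8-9 pts, top 1 or 10 μM) or 1:2 series (22 pts, top 10 or 50 μM), DMSO control. IC50 = 50% of control via curve fit.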

HCT116 WT cells = assay: HCT116 WT cell proliferation / viability (CellTiter-Glo, 6 days); assay type: cell-based; settings: Homo sapiens, HCT-116, 144 h, HCT116 WT cells, 6 days, CellTiter-Glo; read-out: HCT-116 WT IC50
Method in brief: as §1

SMILES	IC50 (HCT116 MTAP null cells) [µM]	IC50 (HCT116 WT cells) [µM]	potency of enantiomer relative to the other enantiomer, measured by IC50 in HCT116 MTAP null cell viability assay (HCT116 MTAP null cells)
CC(c1ncccn1)N(Cc1ccc(C#N)cn1)C(=O)c1ccc2nc(N)c3c(c2c1)COC3 (racemic) [Example 616, 4-amino-N-((5-cyano-2-pyridinyl)methyl)-N-((1R)-1-(2-pyrimidinyl)ethyl)-1,3-dihydrofuro[3,4-c]quinoline-8-carboxamide and 4-amino-N-((5-cyano-2-pyridinyl)methyl)-N-((1S)-1-(2-pyrimidinyl)ethyl)-1,3-dihydrofuro[3,4-c]quinoline-8-carboxamide]	0.018	0.419	–
N#CC[C@@H](C1CC1)N(Cc1ccc(C#N)cn1)C(=O)c1ccc2nc(N)c3c(c2c1)COC3 (single isomer, unassigned) [Example 582]	0.036	0.558	–
CN(Cc1ccc(C(F)(F)F)cc1)C(=O)c1cc2c(cc1Cl)nc(N)c1cnn(C)c12 [Example 558, 4-amino-7-chloro-N,1-dimethyl-N-(4-(trifluoromethyl)benzyl)-1H-pyrazolo[4,3-c]quinoline-8-carboxamide]	0.019	0.421	–
CCN(C(=O)c1ccc2nc(N)c3c(c2c1)COC3)C(C)(C)c1ccc(C(F)(F)F)cc1 [Example 759, 4-amino-N-ethyl-N-(2-(4-(trifluoromethyl)phenyl)-2-propanyl)-1,3-dihydrofuro[3,4-c]quinoline-8-carboxamide]	6.73	11.8	–
CCN(Cc1ccc(S(F)(F)(F)(F)F)cc1)C(=O)c1cc2c(cn1)nc(N)c1cnn(C)c12 [Example 565, 4-amino-N-ethyl-1-methyl-N-(4-(pentafluoro-lambda~6~- sulfanyl)benzyl)-1H-pyrazolo[4,3-c][1,7]naphthyridine-8-carboxamide]	0.019	0.653	–
CC(c1ccc(C(F)(F)F)cn1)N(C)C(=O)c1ccc2nc(N)c3c(cnn3C)c2c1 (racemic) [Example 716, 4-amino-N,3-dimethyl-N-((1R)-1-(5-(trifluoromethyl)-2-pyridinyl)ethyl)-3H-pyrazolo[3,4-c]quinoline-8-carboxamide and 4-amino-N,3-dimethyl-N-((1S)-1-(5-(trifluoromethyl)-2-pyridinyl)ethyl)-3H-pyrazolo[3,4-c]quinoline-8-carboxamide]	0.917	33.3	–
C[C@H](c1ccc(C(F)(F)F)cn1)N(C(=O)c1cc2c3c(c(N)nc2cn1)[C@@H](C)OC3)C1CC1 (single isomer, unassigned) [Example 589]	0.029	0.815	–
CN(Cc1ccc(C(F)(F)C(F)(F)F)cc1)C(=O)c1cc2c(cc1F)nc(N)c1cnn(C)c12 [Example 563, 4-amino-7-fluoro-N,1-dimethyl-N-(4-(pentafluoroethyl)benzyl)-1H-pyrazolo[4,3-c]quinoline-8-carboxamide]	0.028	2.08	–
C[C@H]1OCc2c1c(N)nc1ccc(C(=O)N(C)Cc3ccc(Br)cn3)cc21 [Example 328, (3R)-4-amino-N-((5-bromo-2-pyridinyl)methyl)-N,3-dimethyl-1,3-dihydrofuro[3,4-c]quinoline-8-carboxamide]	0.129	19.4	–
COC(=O)N1CCN(c2ccc(CN(C)C(=O)c3ccc4nc(N)c5c(c4c3)COC5)nc2)CC1 [Example 413, methyl 4-(6-((((4-amino-1,3-dihydrofuro[3,4-c]quinolin-8-yl)carbonyl)(methyl)amino)methyl)-3-pyridinyl)-1-piperazinecarboxylate]	0.87	20.3	–
CC(C)N(Cc1ccc(C2CC2)cn1)C(=O)c1ccc2nc(N)c3c(c2c1)COC3 [Example 364, 4-amino-N-((5-cyclopropyl-2-pyridinyl)methyl)-N-(2-propanyl)-1,3-dihydrofuro[3,4-c]quinoline-8-carboxamide]	0.058	1.76	–
CN(Cc1ccc(C(F)(F)F)nn1)C(=O)c1cc2c3c(c(N)nc2cc1Cl)COC3 [Example 389, 4-amino-7-chloro-N-methyl-N-((6-(trifluoromethyl)-3-pyridazinyl)methyl)-1,3-dihydrofuro[3,4-c]quinoline-8-carboxamide]	0.05	3.39	–
Cn1ncc2c3cc(C(=O)N(Cc4ccc(C(F)(F)F)cn4)C4(C)CC4)ccc3nc(N)c21 [Example 494, 4-amino-3-methyl-N-(1-methylcyclopropyl)-N-((5-(trifluoromethyl)-2-pyridinyl)methyl)-3H-pyrazolo[3,4-c]quinoline-8-carboxamide]	0.282	9.07	–
C[C@H]1OCc2c1c(N)nc1cnc(C(=O)N(C)Cc3ccc(C#N)cn3)cc21 [Example 312, (3R)-4-amino-N-((5-cyano-2-pyridinyl)methyl)-N,3-dimethyl-1,3-dihydrofuro[3,4-c][1,7]naphthyridine-8-carboxamide]	1.09	> 10	–
CCN(Cc1ccc(C(F)(F)F)nn1)C(=O)c1cc2c3c(c(N)nc2cn1)COC3 [Example 696, 4-amino-N-ethyl-N-((6-(trifluoromethyl)-3-pyridazinyl)methyl)-1,3-dihydrofuro[3,4-c][1,7]naphthyridine-8-carboxamide]	0.261	> 10	–
CN(Cc1ccc(S(F)(F)(F)(F)F)cc1)C(=O)c1cc2c(cc1F)nc(N)c1cnn(C)c12 [Example 575, 4-amino-7-fluoro-N,1-dimethyl-N-(4-(pentafluoro-lambda~6~- sulfanyl)benzyl)-1H-pyrazolo[4,3-c]quinoline-8-carboxamide]	0.012	0.354	–
CCN(C(=O)c1cc2c3c(c(N)nc2cn1)COC3)[C@H](C)c1ccc(C(F)(F)F)nn1 [Example 763, 4-amino-N-ethyl-N-((1R)-1-(6-(trifluoromethyl)-3-pyridazinyl)ethyl)-1,3-dihydrofuro[3,4-c][1,7]naphthyridine-8-carboxamide]	0.113	4.81	–
CC(C)N(Cc1ccc(C2CC2)nc1)C(=O)c1cc2c3c(c(N)nc2cn1)COC3 [Example 383, 4-amino-N-((6-cyclopropyl-3-pyridinyl)methyl)-N-(2-propanyl)-1,3-dihydrofuro[3,4-c][1,7]naphthyridine-8-carboxamide]	1.31	43	–
COC[C@@H](C)N(Cc1ccc(C(F)(F)F)cn1)C(=O)c1ccc2nc(N)c3c(c2c1)COC3 [Example 445, 4-amino-N-((2R)-1-methoxy-2-propanyl)-N-((5-(trifluoromethyl)-2-pyridinyl)methyl)-1,3-dihydrofuro[3,4-c]quinoline-8-carboxamide]	0.008	0.153	–
CC(C)N(Cc1cnc(C(F)(F)F)cn1)C(=O)c1cc2c3c(c(N)nc2cc1F)COC3 [Example 496, 4-amino-7-fluoro-N-(2-propanyl)-N-((5-(trifluoromethyl)-2-pyrazinyl)methyl)-1,3-dihydrofuro[3,4-c]quinoline-8-carboxamide]	1.27	2.24	–
COCC(C)N(Cc1ccc(C(F)(F)F)nn1)C(=O)c1cc2c3c(c(N)nc2cn1)[C@@H](C)OC3 (mixture of isomers) [Example 314, (3R)-4-amino-N-((2R)-1-methoxy-2-propanyl)-3-methyl-N-((6-(trifluoromethyl)-3-pyridazinyl)methyl)-1,3-dihydrofuro[3,4-c][1,7]naphthyridine-8-carboxamide and (3R)-4-amino-N-((2S)-1-methoxy-2-propanyl)-3-methyl-N-((6-(trifluoromethyl)-3-pyridazinyl)methyl)-1,3-dihydrofuro[3,4-c][1,7]naphthyridine-8-carboxamide]	0.254	15.2	–
C[C@H](c1ccc(C(F)(F)F)nn1)N(C(=O)c1ccc2nc(N)c3c(c2c1)COC3)C1CCC1 [Example 745, 4-amino-N-cyclobutyl-N-((1R)-1-(6-(trifluoromethyl)-3-pyridazinyl)ethyl)-1,3-dihydrofuro[3,4-c]quinoline-8-carboxamide]	0.246	14.8	–
CCN(Cc1ccc(C(F)(F)F)cn1)C(=O)c1cc2c(cc1F)nc(N)c1c(C)nn(C)c12 [Example 560, 4-amino-N-ethyl-7-fluoro-1,3-dimethyl-N-((5-(trifluoromethyl)-2-pyridinyl)methyl)-1H-pyrazolo[4,3-c]quinoline-8-carboxamide]	0.056	4.14	–
CCN(Cc1ccc(C(F)(F)F)nc1)C(=O)c1cc2c3c(c(N)nc2cn1)COC3 [Example 704, 4-amino-N-ethyl-N-((6-(trifluoromethyl)-3-pyridinyl)methyl)-1,3-dihydrofuro[3,4-c][1,7]naphthyridine-8-carboxamide]	0.549	> 10	–
CN(Cc1ccc(C(F)(F)F)cc1)C(=O)c1cc2c(cc1F)nc(N)c1cnn(C)c12 [Example 552, 4-amino-7-fluoro-N,1-dimethyl-N-(4-(trifluoromethyl)benzyl)-1H-pyrazolo[4,3-c]quinoline-8-carboxamide]	0.025	1.88	–
C[C@H](c1ccc(C(F)(F)F)nn1)N(C)C(=O)c1cc2c(cc1F)nc(N)c1c2cnn1C [Example 779, 4-amino-7-fluoro-N,3-dimethyl-N-((1R)-1-(6-(trifluoromethyl)-3-pyridazinyl)ethyl)-3H-pyrazolo[3,4-c]quinoline-8-carboxamide]	0.364	28.9	–
COc1ccc(CN(C(=O)c2ccc3nc(N)c4c(c3c2)CCC4)[C@H](C)c2ncccn2)nn1 (single isomer, unassigned) [Example 646]	0.019	0.263	more potent
COc1ccc(CN(C(=O)c2ccc3nc(N)c4c(c3c2)CCC4)[C@@H](C)c2ncccn2)nn1 (single isomer, unassigned) [Example 647]	0.673	4.2	less potent
